Data: ChEMBL document CHEMBL5335868, “Exploring Scaffold Hopping for Novel 2-(Quinolin-4-yloxy)acetamides with Enhanced Antimycobacterial Activity” (ACS Med Chem Lett, 2024)
≈ marks a conversion by molar mass, not a printed value.

Key:
Type in all cases: functional
[1] = system: Mycobacterium tuberculosis; assay: Antibacterial activity against multi-drug resistant Mycobacterium tuberculosis clinical isolate PT2 assessed as bacterial growth inhibition measured after 7 days by resazurin based assay; settings: 168 h, time 7 day
[2] = system: Mycobacterium tuberculosis; assay: Antibacterial activity against multi-drug resistant Mycobacterium tuberculosis clinical isolate PT12 assessed as bacterial growth inhibition measured after 7 days by resazurin based assay; settings: 168 h, time 7 day
[3] = system: Mycobacterium tuberculosis; assay: Antibacterial activity against multi-drug resistant Mycobacterium tuberculosis clinical isolate PT20 assessed as bacterial growth inhibition measured after 7 days by resazurin based assay; settings: 168 h, time 7 day
[4] = system: Mycobacterium tuberculosis; assay: Antibacterial activity against qcrB-resistant Mycobacterium tuberculosis harbouring T313A mutant assessed as bacterial growth inhibition measured after 7 days by resazurin based assay; settings: time 7 day

SMILES	MIC [1] [µM]	MIC [2] [µM]	MIC [3] [µM]	MIC [4] [µM]
COc1ccc2nc(C)cc(OCC(=O)Nc3ccc(N4CCC(c5ccccc5)CC4)cc3)c2c1	< 0.02	< 0.02	< 0.02	>10.4
CO[C@H]1/C=C/O[C@@]2(C)Oc3c(C)c(O)c4c(O)c(c(/C=N/N5CCN(C)CC5)c(O)c4c3C2=O)NC(=O)/C(C)=C\C=C\[C@H](C)[C@H](O)[C@@H](C)[C@@H](O)[C@@H](C)[C@H](OC(C)=O)[C@@H]1C [RIFAMPIN]	> 48.6	> 48.6	> 48.6	
NNC(=O)c1ccncc1 [ISONIAZID]		146 (≈ 20 µg/mL)		2.3 (≈ 0.315 µg/mL)
Cc1cc(OCC(=O)Nc2ccc(N3CCC(c4ccccc4)CC3)cc2)c2cc(Br)ccc2n1	< 0.02	< 0.02	< 0.02	>9.4
Cc1cc(OCC(=O)Nc2ccc(N3CCC(c4ccccc4)CC3)cc2)c2cc(Cl)ccc2n1	< 0.02	< 0.02	< 0.02	>10.3
COc1ccc2nc(C)cc(OCC(=O)Nc3ccc(N4CCC(c5ccc(OC(F)(F)F)cc5)CC4)cc3)c2c1	< 0.02	< 0.02	< 0.02	>8.8
